In paper PMC6015500 (ACS combinatorial science, 2015):
pEC50: −log10 of the molar value. Where two headings read alike, the source gives them in different places.

Columns and labels:
[1] = tested on: HCV-Luc (recombinant HCV carrying the Renilla luciferase reporter); assay: HCV-Luc infection assay; format: cell-based, hepatitis C virus (HCV)
in vitro [2] = format: cell-based; conditions: human
in vitro [3] = format: cell-based; conditions: human; remark: listed apart in the source
[4] = tested on: single-round infectious HCV (HCVsc); assay: HCV single-cycle assay; format: cell-based, hepatitis C virus (HCV); conditions: tested at 10 µM; % of DMSO control
[5] = tested on: HCV pseudoparticle (HCVpp) GT 1a; assay: HCVpp entry assay, genotype 1a; format: cell-based, hepatitis C virus (HCV); conditions: tested at 10 µM; % of DMSO control
[6] = tested on: HCV pseudoparticle (HCVpp) GT 1b; assay: HCVpp entry assay, genotype 1b; format: cell-based, hepatitis C virus (HCV); conditions: tested at 10 µM; % of DMSO control
VSVpp = format: cell-based
[7] = tested on: HCV replicon cell line of genotype 1b; assay: HCV subgenomic replicon assay, genotype 1b; format: cell-based, hepatitis C virus (HCV); conditions: tested at 10 µM; % of DMSO control
[8] = tested on: HCV replicon cell line of genotype 2a; assay: HCV subgenomic replicon assay, genotype 2a; format: cell-based, hepatitis C virus (HCV); conditions: tested at 10 µM; % of DMSO control
[9] = tested on: transient genotype 1a subgenomic replicon in Huh7.5.1 cells; assay: Transient genotype 1a replicon assay; format: cell-based, hepatitis C virus (HCV); conditions: tested at 10 µM; % of DMSO control
[10] = In vitro microsomal stability; format: in vitro ADME; conditions: CD-1, mouse, liver microsomes
[11] = Double-sink PAMPA permeability; format: in vitro ADME
[12] = tested on: wild-type HCV (HCVcc, genotype 2a); assay: HCVcc wild-type infection assay; format: cell-based, hepatitis C virus (HCV); conditions: Huh7.5.1 cells, compounds at 10 µM, 48 h, quantitative real-time PCR
Huh7.5.1 cells = assay: in vitro; format: cell-based

Structure (SMILES) | pEC50 ([1]; Huh-7.5.1, 48 h, read-out: HCV-Luc EC50) | pEC50 ([1]; Huh-7.5.1, read-out: HCV-Luc EC50) | Selective Index (SI) ([1]; SI = CC50/EC50, Huh7.5.1 cells) | CC50 at 48 h (in vitro [2]) [µM] | CC50 (in vitro [3]) [µM] | HCVsc DMSO (%) [4] [%] | HCVpp DMSO (%) GT la [5] [%] | HCVpp DMSO (%) GT lb [6] [%] | VSVpp DMSO (%) (VSVpp) | HCV Replicon DMSO (%) GT lb [7] [%] | HCV Replicon DMSO (%) GT 2a [8] [%] | HCV Replicon DMSO (%) Transient la [9] [%] | half-life [10] [min] | Papp ([11]; PAMPA) [×10⁻⁶ cm/s] | permeability ([11]; double-sink PAMPA) | extracellular and intracellular viral RNA levels [12] | inhibitory activity in the HCV-Luc assay [1] | pEC50 ([1]; read-out: HCV-Luc EC50, Huh7.5.1 cells, 48 h, Renilla luciferase signal) | CC50 (Huh7.5.1 cells) [µM]
COc1ccc(-c2oc3ccc(-c4ccc5c(c4)OCO5)nc3c2C#CC2(O)CCCCC2)cc1 [10{21}, 1-((5-(Benzo[d][1,3]dioxol-5-yl)-2-(4-methoxyphenyl)furo-[3,2-b]pyridin-3-yl)ethynyl)cyclohexanol] | 6.74 | 6.74 | >543 | > 100 | 92.3 | 20.0 | 41.2 | 78.1 | 121 | 82.1 | 121 | 194 | > 30 | < 15.4 | moderate permeability | most promising activity | – | – | –
COc1ccc(-c2ccc3oc(-c4ccc(OC)cc4)c(C#CCCO)c3c2)cc1 [2{1}] | – | – | – | – | – | – | – | – | – | – | – | – | – | – | – | – | low-micromolar | 6.01 | 70.9
